Measured values reported in patent publication US20120202799A1, “Condensed Azepine Derivatives As Bromodomain Inhibitors” (priority 2009, published 2012).

target: T1, Bromodomain 2, 3 and 4 (BRD2, BRD3 and BRD4); experiment: Fluorescence Anisotropy Binding Assay; set-up: species or system Human; settings: result stated for one or more of BRD2, BRD3 and BRD4, target not specified per compound
T1 construct: fused on or other part: six-His tag at the N-terminus
Experimental: All data was normalized to the mean of 16 high and 16 low control wells on each plate. A four parameter curve fit of the following form was then applied:
y=a+((b−a)/(1+(10̂x/10̂c)̂d)
The His-tagged Bromodomain was extracted from E. coli cells using 0.1 mg/ml lysozyme and sonication. […] Further purification was completed by Superdex 200 prep grade size exclusion column. Purified protein was stored at −80 C in 20 mM HEPES pH 7.5 and 100 mM NaCl.

With `Cc1nnc2n1-c1ccccc1C(c1ccccc1)=NC2NC(=O)OCc1ccco1` (centres unmarked) [Example 44, 2-furanylmethyl (1-methyl-6-phenyl-4H-[1,2,4]triazolo[4,3-a][1,4]benzodiazepin-4-yl)carbamate] as the molecule, how does the “pIC50 in one or more of the BRD2, BRD3 and BRD4 assays” value read?
Its value is no less than 5.0.

system: TNFα levels in LPS stimulated whole blood; experiment: LPS Stimulated Whole Blood Measuring TNFα Levels Assay; type: cell-based; settings: LPS final concentration 200 ng/ml, 24 hours at 37 degrees, TNFα by immunoassay, read-out: pIC50 (TNFα levels) (converted)
Experimental: Activation of monocytic cells by agonists of toll-like receptors such as bacterial lipopolysaccharide (LPS) results in production of key inflammatory mediators including TNFα. Such pathways are widely considered to be central to the pathophysiology of a range of auto-immune and inflammatory disorders.
Compounds to be tested are diluted to give a range of appropriate concentrations and 1 ul of the dilution stocks is added to wells of a 96 plate. Following addition of whole blood (130 μl) the plates are incubated at 37 degrees (5% CO2) for 30 min before the addition of 10 ul of 2.8 ug/ml LPS, diluted in complete RPMI 1640 (final concentration=200 ng/ml), to give a total volume of 140 μl per well. After further incubation for 24 hours at 37 degrees, 140 μl of PBS are added to each well. The plates are sealed, shaken for 10 minutes and then centrifuged (2500 rpm×10 min). 100 μl of the supernatant are removed and TNFα levels assayed by immunoassay (typically by MesoScale Discovery technology) either immediately or following storage at −20 degrees. Dose response curves for each compound was generated from the data and an IC50 value was calculated.

For `Cc1nnc2n1-c1ccccc1C(c1ccccc1)=NC2NC(=O)/C=C/c1ccc(F)cc1` (centres unmarked) [Example 65, (2E)-3-(4-fluorophenyl)-N-(1-methyl-6-phenyl-4H-[1,2,4]triazolo[4,3-a][1,4]benzodiazepin-4-yl)-2-propenamide], which IC50 is on record?
Its IC50 is no more than 10 µM.

Which IC50 does the source give for `Cc1nnc2n1-c1ccccc1C(c1ccccc1)=NC2NC(=O)OCc1ccccc1` (single isomer, unassigned; (+)) [Example 27, (+)-phenylmethyl (1-methyl-6-phenyl-4H-[1,2,4]triazolo[4,3-a][1,4]benzodiazepin-4-yl)carbamate] here?
Its IC50 is no more than 10 µM.

For `Cc1nnc2n1-c1ccccc1C(c1ccccc1)=NC2NC(=O)/C=C/c1ccccc1` (centres unmarked) [Example 64, (2E)-N-(1-methyl-6-phenyl-4H-[1,2,4]triazolo[4,3-a][1,4]benzodiazepin-4-yl)-3-phenyl-2-propenamide], which IC50 is on record?
The IC50 was no more than 10 µM.

With `CCOC(=O)NC1N=C(c2ccc(Cl)cc2)c2ccccc2-n2c(C)nnc21` (single isomer, unassigned; (+)) [Example 28, (+)-ethyl [6-(4-chlorophenyl)-1-methyl-4H-[1,2,4]triazolo[4,3-a][1,4]benzodiazepin-4-yl]carbamate] as the molecule, how does the IC50 read?
Its IC50 is no more than 10 µM.

Which IC50 does the source give for `CCOC(=O)NC1N=C(c2ccccc2)c2ccccc2-n2c(C)nnc21` (single isomer, unassigned; (+)) [Example 32, (+)-ethyl 1-methyl-6-phenyl-4H-[1,2,4]triazolo[4,3-a][1,4]benzodiazepin-4-ylcarbamate] here?
The IC50 was no more than 10 µM.

For `COc1ccc2cc(C(=O)NC3N=C(c4ccccc4)c4ccccc4-n4c(C)nnc43)[nH]c2c1` (centres unmarked) [Example 53, 6-(methyloxy)-N-(1-methyl-6-phenyl-4H-[1,2,4]-triazolo[4,3-a][1,4]benzodiazepin-4-yl)-1H-indole-2-carboxamide], which IC50 is on record?
Its IC50 is no more than 10 µM.

system: not given; experiment: not given; settings: not given

With `Cc1nnc2n1-c1ccc(Br)cc1C(c1ccccc1F)=NC2NC(=O)OCc1ccccc1` (centres unmarked) [Example 17, phenylmethyl [8-bromo-6-(2-fluorophenyl)-1-methyl-4H-[1,2,4]triazolo[4,3-a][1,4]benzodiazepin-4-yl]carbamate] as the molecule, how does the melting point read?
The melting point was 160 to 170 °C.

Which melting point does the source give for `COc1ccc(C2=NC(NC(=O)Nc3ccc(C(=O)c4ccccc4)cc3)c3nnc(C)n3-c3ccccc32)cc1` (centres unmarked) here?
Its melting point is 225 °C.

For `Cc1nnc2n1-c1ccccc1C(c1ccccc1)=NC2NC(=O)Nc1ccccc1` (centres unmarked) [Example 70, N-(1-methyl-6-phenyl-4H-[1,2,4]triazolo[4,3-a][1,4]benzodiazepin-4-yl)-N′-phenyl urea], which melting point is on record?
Its melting point is greater than 260 °C.

Which melting point does the source give for `COc1ccc2cc(C(=O)NC3N=C(c4ccccc4)c4ccccc4-n4c(C)nnc43)[nH]c2c1` (centres unmarked) [Example 53, 6-(methyloxy)-N-(1-methyl-6-phenyl-4H-[1,2,4]-triazolo[4,3-a][1,4]benzodiazepin-4-yl)-1H-indole-2-carboxamide] here?
The melting point was 160 to 170 °C.
